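Test compounds were applied to cells in 96-well plates for 48 hours at 5 doses. TGI is the concentration that stops growth completely.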
Legend:
Assay in all cases: DTP human tumour cell line panel, 48 h
ACHN renal = tested on: ACHN renal
HCT-116 colon = tested on: HCT-116 colon
K-562 leukemia = tested on: K-562 leukemia
M14 melanoma = tested on: M14 melanoma
MALME-3M melanoma = tested on: MALME-3M melanoma
MCF7 breast = tested on: MCF7 breast
NCI-H522 lung = tested on: NCI-H522 lung
NCI/ADR-RES ovarian = tested on: NCI/ADR-RES ovarian
OVCAR-5 ovarian = tested on: OVCAR-5 ovarian
OVCAR-8 ovarian = tested on: OVCAR-8 ovarian
RXF 393 renal = tested on: RXF 393 renal
SF-268 CNS = tested on: SF-268 CNS
SK-MEL-5 melanoma = tested on: SK-MEL-5 melanoma
SR leukemia = tested on: SR leukemia
SW-620 colon = tested on: SW-620 colon
U251 CNS = tested on: U251 CNS
UACC-257 melanoma = tested on: UACC-257 melanoma
UO-31 renal = tested on: UO-31 renal

Row | Compound | TGI (ACHN renal) | TGI (HCT-116 colon) | TGI (K-562 leukemia) | TGI (M14 melanoma) | TGI (MALME-3M melanoma) | TGI (MCF7 breast) | TGI (NCI-H522 lung) | TGI (NCI/ADR-RES ovarian) | TGI (OVCAR-5 ovarian) | TGI (OVCAR-8 ovarian) | TGI (RXF 393 renal) | TGI (SF-268 CNS) | TGI (SK-MEL-5 melanoma) | TGI (SR leukemia) | TGI (SW-620 colon) | TGI (U251 CNS) | TGI (UACC-257 melanoma) | TGI (UO-31 renal)
1 | COc1cc(C(CN)N(C)C)cc(OC)c1OC (stereo not drawn) | > 100 µM | > 100 µM | > 100 µM | > 100 µM | > 100 µM | > 100 µM | > 100 µM | > 100 µM | > 100 µM | > 100 µM | > 100 µM | > 100 µM | > 100 µM | > 100 µM | > 100 µM | > 100 µM | > 100 µM | > 100 µM
2 | COC(=O)c1ccc(/C=N/c2cc(C)nn2-c2ccccc2)cc1 | > 100 µM | > 100 µM | > 100 µM | > 100 µM | > 100 µM | > 100 µM | > 100 µM | > 100 µM | > 100 µM | > 100 µM | > 100 µM | > 100 µM | 83.2 µM | > 100 µM | > 100 µM | > 100 µM | 20.4 µM | > 100 µM
3 | C[C@@H]1O[C@@H]2OCC[C@@H]2C2=C1C(=O)c1ccccc1C2=O | 28.6 µM |  | 32.7 µM | 14.2 µM | 4.95 µM | 2.81 µM | 20.3 µM | 14 µM | 4.3 µM | > 100 µM | 13.3 µM | 16.9 µM | 19.2 µM | 28.1 µM | 15.2 µM | 29.5 µM | 24.5 µM | 22.8 µM
4 | CC(C)C(OC(=O)c1cc(NC(=S)c2ccccc2)ccc1Cl)C(C)C | 65.7 µM | 40.8 µM | > 100 µM | > 84.8 µM | > 57.8 µM | > 100 µM | 29.4 µM | > 100 µM | > 100 µM | > 100 µM | 37.1 µM | 82 µM | 29.9 µM | > 60.8 µM | > 89.6 µM | > 61.5 µM | 58.5 µM | 54.6 µM
5 | COC(=O)c1c(C)cccc1C1CN=NC12Cc1c(C)cccc1C2=O (stereo not drawn) | > 100 µM | > 100 µM | > 100 µM | > 100 µM | > 100 µM | > 100 µM | 91.7 µM | > 100 µM | > 100 µM | > 100 µM | > 100 µM | > 100 µM | > 100 µM | > 100 µM | > 100 µM | > 100 µM | > 100 µM | > 100 µM
6 | COc1ccc(-n2c(C)nc3ccc(N=Cc4ccccc4)cc3c2=O)cc1 | > 100 µM | > 100 µM | > 100 µM |  | > 100 µM | > 100 µM | > 100 µM | > 100 µM | > 100 µM | > 100 µM | > 100 µM | > 100 µM | > 100 µM | > 100 µM | > 100 µM | > 100 µM | > 100 µM | > 100 µM
7 | Nc1nonc1-c1noc(-c2nonc2N)[n+]1[O-] | > 100 µM | > 100 µM | > 100 µM | > 100 µM | 42.5 µM | > 100 µM | 28 µM | > 100 µM | > 100 µM |  | 51.1 µM | > 100 µM | > 100 µM | > 100 µM | 79.2 µM | > 100 µM | > 100 µM | > 100 µM
8 | Cc1ccc(-c2n[nH]c(CC#N)n2)cc1 | > 100 µM | > 100 µM | > 100 µM | > 100 µM | > 100 µM | > 100 µM | > 100 µM | > 100 µM | > 100 µM | > 100 µM | > 100 µM | > 100 µM | > 100 µM | > 100 µM | > 100 µM | > 100 µM | > 100 µM | > 100 µM
9 | COc1ccc(Oc2nc3cc(C(F)(F)F)ccc3nc2C(C)C)cc1 | 90.4 µM | > 100 µM | 86.7 µM | > 100 µM | 72.4 µM | 39.5 µM | 41.3 µM | 44.1 µM | 77.4 µM | 94.5 µM | 40.7 µM | > 100 µM | 52.2 µM | 36.6 µM | 84.2 µM | 50.8 µM | 73.9 µM | 95 µM
10 | CCCCCCCCCCCCCC/C(=C/OCC[N+](C)(C)C)OC(C)=O (tested in a mixture with another compound) | 14 µM | 11.2 µM | 13.3 µM | 7.12 µM | 21.2 µM | 10.3 µM | 5.07 µM | 44.2 µM | 13.2 µM | 4.15 µM | 2.45 µM | 5.09 µM | 4.92 µM | 4.57 µM | 17.5 µM | 2.71 µM | 8.91 µM | 30 µM
11 | c1csc(-c2cc(-c3ccsc3)c(-c3cccs3)s2)c1 | > 100 µM | > 100 µM | > 100 µM | > 100 µM | > 100 µM | 89.8 µM | > 100 µM | > 100 µM | > 100 µM | > 100 µM | > 100 µM | > 100 µM | > 100 µM | > 100 µM | > 100 µM | > 100 µM | > 100 µM | > 100 µM
12 | COC(=O)C1=C(C(=O)OC)C2(/N=C(\Nc3ccccc3)c3ccccc3)N(c3ccc(OC)cc3)CC(c3ccccc3)N2O1 (stereo not drawn) | > 100 µM | > 100 µM | > 100 µM | > 100 µM | > 100 µM | > 100 µM | > 100 µM | > 100 µM | > 100 µM | > 100 µM | > 100 µM | > 100 µM | > 100 µM | > 100 µM | > 100 µM | > 100 µM | > 100 µM | > 100 µM
13 | CNC(=O)OC(C)CN1c2ccccc2Sc2ccccc21 (stereo not drawn) | > 100 µM | > 100 µM | > 100 µM | > 100 µM | > 100 µM | > 100 µM | > 100 µM | > 100 µM | > 100 µM | > 100 µM | > 100 µM | > 100 µM | > 100 µM | > 100 µM | > 100 µM | > 100 µM | > 100 µM | > 100 µM
14 | COc1ccc(OC)c2c1C(=O)C(Cl)=C(Cl)C2=O | 10.9 µM | 3.86 µM | > 100 µM | 6.46 µM | 4.46 µM | 10.4 µM | 4.68 µM | 5.74 µM | 29.6 µM | 18.3 µM | 3.65 µM | 27 µM | 14.1 µM | > 88 µM | 3.6 µM | 38.9 µM | 4.68 µM | 6.66 µM
15 | O=C(CCNC(=O)OCc1ccccc1)OCCCNC(=O)OCc1ccccc1 | > 100 µM | > 100 µM | > 100 µM | > 100 µM | > 100 µM | > 100 µM | > 100 µM | > 100 µM | > 100 µM | > 100 µM | > 100 µM | > 100 µM | > 100 µM | > 100 µM | > 100 µM | > 100 µM | > 100 µM | > 100 µM
16 | c1ccc(N=C2SC(c3ccccc3)CN2C23CC4CC(CC(C4)C2)C3)cc1 (stereo not drawn) | > 100 µM | > 100 µM | > 100 µM | > 100 µM | > 100 µM | > 100 µM | > 100 µM | > 100 µM | > 100 µM | > 100 µM | > 100 µM | > 100 µM | > 100 µM | > 100 µM | > 100 µM | > 100 µM | > 100 µM | > 100 µM
17 | CC(=O)NC1C(OCc2ccccc2)OC(CO)C(O)C1OCC(=O)NC(C)C(=O)NC(CCC(=O)OCCNC(=O)c1cccc2cc3ccccc3nc12)C(N)=O (stereo not drawn) | 39.3 µM | 31.8 µM | > 100 µM | 42.1 µM | 31.4 µM | > 100 µM | 34 µM | 68.1 µM | 69.3 µM | 39.4 µM | 39.7 µM | 67 µM | 31.3 µM | 45.3 µM | > 100 µM | 53.5 µM | 66.3 µM | 36.2 µM
18 | COc1ccc(C(=O)N=C2N(c3ccccc3)C(=Nc3ccccc3)C(=Nc3ccccc3)N2c2ccccc2)cc1 | > 100 µM | > 100 µM | > 100 µM | > 65.2 µM | > 58.3 µM | > 100 µM | > 100 µM | > 100 µM | > 100 µM | > 100 µM | 25.8 µM | > 100 µM | > 56.7 µM | > 100 µM | > 100 µM | > 87.9 µM | > 100 µM | > 100 µM
19 | OC(CCN1CCN(CCOC(c2ccc(F)cc2)c2ccc(F)cc2)CC1)c1ccccc1 (stereo not drawn) | 25.8 µM | 26.2 µM | 26.4 µM | 28 µM | 26.8 µM | 35.6 µM | 28.1 µM | 26.8 µM | 27.8 µM | 25.7 µM | 24.1 µM | 31.2 µM | 21 µM | 33.3 µM | 57.4 µM | 27.8 µM | 42.5 µM | 11.2 µM
20 | COC(=O)C1=C(O)C(C(=O)OC)[C@@]2(O)[C@@H](C(=O)OC)C(c3ccc(OC(=O)/C(=C/c4ccccc4)c4ccccc4)cc3)C[C@@H]1[C@@H]2C(=O)OC (stereo partly drawn) | > 100 µM | > 100 µM | > 100 µM | 33 µM | > 100 µM | > 100 µM | > 100 µM | > 100 µM | > 100 µM | > 100 µM | 63.1 µM | > 100 µM | > 100 µM | > 100 µM | > 100 µM | > 100 µM | > 100 µM | 40.4 µM
21 | CCCCC/C=C1\CCC(CN2CCOCC2)C1=O (stereo not drawn) | 30.1 µM | 54.9 µM | 7 µM | 16.9 µM | 18.9 µM | 7.73 µM | 5.18 µM | 54.6 µM | 35.9 µM | 13 µM | 12.3 µM | 34 µM | 31.1 µM | 12.1 µM | 11.5 µM | 23.8 µM | 24.5 µM | 25.9 µM
22 | COc1ccc(-c2c(N)n(-c3cc(OC)cc(OC)c3)c(=O)c3cc([N+](=O)[O-])ccc23)cc1 | > 100 µM | > 100 µM | > 100 µM | > 100 µM | > 100 µM | > 100 µM | > 100 µM | > 100 µM | > 100 µM | > 100 µM | > 100 µM | > 100 µM | > 100 µM | > 100 µM | > 100 µM | > 100 µM | > 100 µM | > 100 µM

— PubChem BioAssay (NCI)
